Experimental data: patent US7683055B2, “Lanthionine-related compounds for the treatment of inflammatory diseases” (Oklahoma Medical Research Foundation, priority 2006, dated 2010)

Experiments:
C6 glioma cells = assay: stimulated nitrite production in C6 glioma cells; format: cell-based
NSC-34 cells = assay: NSC-34 viability after H2O2 challenge (tetrazolium reduction); format: cell-based, mouse; conditions: H2O2 challenge 24 h
Experimental: NSC-34 cells were challenged directly with H2O2 for 24 h and the viability was assessed by tetrazolium reduction assay.
Furthermore, the invention contemplates that cytoprotection might be achieved by providing metabolic precursors to LK, rather than direct addition of the compound. For example, the inventor has studied the effects of NSC-34 cells treated with ethyl pyruvate in the presence or absence of lanthionine for 6 h prior to challenge with H2O2 and has assayed the viability of these cells 24 h later (FIG. 10). As reported in previous studies, ethyl pyruvate alone was protective against peroxide-induced cell death (Desagher et al., 1997; Nakamichi et al., 2005) with complete protection at ethyl pyruvate concentrations >1 mM (approximately 2-fold higher than ambient cell culture medium pyruvate concentrations; data not shown).
(R)-LKE1 protects NSC-34 motoneuron x neuroblastoma hybrid cells from hydrogen peroxide toxicity (FIG. 4). Cells were treated with the indicated concentration of (R)-LKE1. Thirty minutes later cells were challenged with the indicated concentration of hydrogen peroxide. Cell viability was assayed 24 hours later by tetrazolium reduction using a commercially available kit (Promega).
NSC-34 motor neuron-like cells, derived through the fusion of a neuroblastoma cell line with embryonic mouse motor neurons (Cashman et al., 1992), were grown in Dulbeco's modified essential medium (DMEM) plus 5% fetal bovine serum (FBS) and 1% penicillin plus 1% streptomycin (Pen/Strep). Recombinant TNFα and interferon gamma (IFNγ) were purchased from BD Biosciences (Pasadena Calif. USA). Lanthionine was purchased from Sequoia Research Products Ltd. (Pangbourne, UK). All other reagents were of the highest available commercial purity.
NSC-34 cells were exposed to 1 mM H2O2 with or without ethyl-pyruvate and/or lantionine (LK).

HT4 cells = assay: glutamate toxicity in HT4 cells (LDH leakage); format: cell-based
Experimental: (§1) FIG. 13. (R)-LK protects HT4 cells against excitotoxicity. Determination of cell viability: HT4 cells were seeded in 6 well plates (1×10^7 cell/well). After 24 h, cell media was changed and (R)-LK (in DMSO) was used for 1 h prior to glutamate challenge. Powdered (R)-LK was dissolved in DMSO just before use. The viability of cells in culture was assessed by measuring the leakage of lactate dehydrogenase (LDH) from cells to media 18-24 h following glutamate treatment using the in vitro toxicology assay kit from Sigma Chemical Co. (St. Louis, Mo., USA). LDH leakage was determined using the following equation: % of total LDH leaked=(LDH activity in the cell culture media/total LDH activity) where total LDH activity=LDH activity in cell monolayer+LDH activity of detached cells+LDH activity in the cell culture media.
as §1, with “14. (R)-LKE1” for “13. (R)-LK”, “Determination of cell viability: HT4 cells were seeded in 6 well plates (1×10^7 cell/well). After 24 h, cell media was changed and (R)-LK (in DMSO) was used for 1 h prior to glutamate challenge. Powdered (R)-LK was dissolved in DMSO just before use.” left out, “media. […]” for “media.”

G93A-SOD1 mice = assay: G93A-SOD1 mouse model of ALS (rotarod, weight); format: in vivo; conditions: 100 mg/kg i.p. 5 days/week from day 90
From the text: Transgenic mice. Mice expressing high copy numbers of human mutant G93A-SOD1 (SOD1^G93A mice) were obtained from Jackson Laboratories [Bar Harbor Me. USA; strain designation B6SJL-TgN-(SOD1 G93A)-1-Gur] (Hensley et al., 2002; Hensley et al., 2003; West et al., 2004; Hensley et al., 2006). Transgenic mice were maintained in the hemizygous state by mating SOD1^G93A males with B6SJL-TGN females. Animals were housed in the Oklahoma Medical Research Foundation Laboratory Animal Resource Center.
Mice were trained to a rotarod task at 80 d of age. In this task mice were placed on a horizontal rod that rotates with acceleration at 10 rpm from rest (Hensley et al., 2002; Hensley et al., 2003; West et al., 2004). The time was recorded at which each mouse fell from the rotarod and the test was repeated four times on each trial date. The closest three performance times were averaged for each mouse on each day. For experimental drug treatments mice were injected with LKE at 100 mg/kg/day i.p. Monday-Friday beginning at 90 d. Control animals received saline vehicle. Rotarod performance and weights were recorded at 10 day intervals until death. Animals were euthanized when unable to right themselves within 10 seconds of being placed on their side, or when unable to perform the rotarod task.

## CCOC(=O)[C@@H]1CSCC(C(=O)O)=N1 [(R)-LKE1]
C6 glioma cells; stimulated by TNFα+IFNγ
  suppression of nitrite production: does not suppress nitrite production
C6 glioma cells; stimulated by TNFα+LPS
  suppression of nitrite production: not to suppress nitrite production
NSC-34 cells
  protection from H2O2-induced cell death: protected NSC-34 cells from direct oxidative stress-induced cell death in a dose dependent fashion
HT4 cells
  glutamate toxicity (LDH release): significantly diminished glutamate toxicity
G93A-SOD1 mice
  rotarod performance: improved
  weight loss: inhibited weight loss
